{"source": "paper PMC12587545", "about": "“Noncytotoxic polymyxin derivatives enhance antibiotic action against multidrug-resistant Gram-negative bacteria” (Antimicrobial Agents and Chemotherapy, 2025)", "key": {"HK-2": {"test_system": "HK-2", "assay_type": "cell-based, human", "conditions": "48 h", "procedure": "(§1) Kidney cell lines, HK-2 (CRL-2190) and RPTEC/TERT1 (CRL-4031), and neural cell lines, U-87 MG (HTB-14) and SK-N-SH (HTB-11), were obtained from American Type Culture Collection (ATCC). HK-2 cells were cultured in T75 flasks with keratinocyte serum-free medium supplemented with bovine pituitary extract, human epidermal growth factor, and 2.5% FBS. RPTEC/TERT1 cells were cultured in T75 flasks with Dulbecco’s modified Eagle’s medium:F12 supplemented with the ATCC (United States) human telomerase reverse transcriptase immortalized RPTEC growth kit, G418 (0.1 mg/mL final concentration), and 2% FBS. Both U-87 MG and SK-N-SH cells were cultured in minimal essential media supplemented with 10% FBS. The cells were incubated in a humidified atmosphere at 5% CO2 and at 37°C.\n(§2) The cytotoxicity of the compounds toward the mammalian cell lines was assessed using the cell viability assay protocols as previously described ([29]). Designated wells in 96-well plates were seeded with HK-2 (5,000 cells), RPTEC/TERT1 (8,000 cells), U-87 MG (7,000 cells), or SK-N-SH (8,000 cells) in 50 µL. Blank wells received an identical volume of only media. After incubating the cells for 24 h, all wells were treated with varying concentrations of the compound and incubated for 48 h. Subsequently, PrestoBlue reagent (Invitrogen, United States) was added to the wells to a final concentration of 10% (vol/vol), and the plate was incubated for an additional 1 h. Fluorescence was measured with a SpectraMax M2 plate reader (Molecular Devices, United States), at excitation and emission wavelengths of 560 and 590 nm, respectively. Values from the blank wells were subtracted from the corresponding wells containing cells. The cell viability relative to the controls with vehicle was calculated and presented as mean ± standard deviation of at least two experiments with five replicates each. CC50 values were obtained using GraphPad Prism (version 10.4.1) by non-linear regression (four-parameter logistic fit)."}, "SK-N-SH": {"test_system": "SK-N-SH", "assay": "Cell viability assay (PrestoBlue)", "assay_type": "cell-based", "conditions": "24 h", "procedure": "as §1\nas §2, with “After incubating the cells for 24 h, all wells were treated with varying concentrations of the compound and incubated for 48 h.” left out"}, "U-87 MG": {"test_system": "U-87 MG", "assay": "Cell viability assay (PrestoBlue)", "assay_type": "cell-based", "conditions": "24 h", "procedure": "as §1\nas §2, with “After incubating the cells for 24 h, all wells were treated with varying concentrations of the compound and incubated for 48 h.” left out"}, "K. pneumoniae": {"test_system": "K. pneumoniae", "procedure": "(§3) The bacterial isolates were acquired from ATCC or the Canadian Ward Surveillance (CANWARD) study ([56]). CANWARD isolates were collected from infected patients admitted to participating medical centers across Canada.\n(§4) The antibiotic or compound was serially diluted 2-fold in CAMHB on a 96-well plate and was incubated with equal volumes of bacterial inoculum overnight at 37°C. Wells containing only media were used as negative controls, and wells containing only bacteria were used as positive controls. Antibacterial activity was measured by the MIC, or the lowest concentration of agent required to inhibit visible bacterial growth. Turbidity was confirmed with a Molecular Devices (United States) EMax Plus microplate reader at a wavelength of 590 nm."}, "P. aeruginosa": {"test_system": "P. aeruginosa", "procedure": "as §3, §4"}}, "note": "Positions of bridges follow the written chain, without caps; N, C: chain ends. Non-standard residues stand in square brackets, D forms with d. Residues, ends and D or L forms follow the SMILES beside them. *: point of attachment. Octanoyl = CCCCCCCC(=O)*; Dab = NCC[C@H](N)C(=O)O; Dap = NC[C@H](N)C(=O)O", "data": [{"compound": "CCCCCCCC(=O)N[C@@H](CN)C(=O)N[C@H](C(=O)N[C@@H](CN)C(=O)N[C@H]1CCNC(=O)[C@H]([C@@H](C)O)NC(=O)[C@H](CN)NC(=O)[C@H](CN)NC(=O)[C@H](CC(C)C)NC(=O)[C@@H](Cc2ccccc2)NC(=O)[C@H](CN)NC1=O)[C@@H](C)O", "note": "[Compound 1] (Octanoyl-[Dap]T[Dap][Dab][Dap][dF]L[Dap][Dap]T; lactam 4-C)", "values": [{"measurement": "CC50 in HK-2", "setting": "HK-2", "result": 238.7, "unit": "µM"}, {"measurement": "cell viability", "setting": "SK-N-SH", "result": "exceeding 100%"}, {"measurement": "cell viability", "setting": "U-87 MG", "result": "exceeding 100%"}, {"measurement": "MIC", "setting": "K. pneumoniae", "result": ">128", "unit": "µg/mL"}, {"measurement": "MIC", "setting": "P. aeruginosa", "result": ">128", "unit": "µg/mL"}]}]}
